Laboratory results reported in US12421211B2, “Heterocyclic compounds” (Hoffmann-La Roche Inc., priority 2021, dated 2025).
Counter-ions that a name gives are not always drawn.

What follows are compounds tested on Acinetobacter baumannii ATCC17961 (assay: Antimicrobial susceptibility testing: 90% growth inhibitory concentration (IC90) determination). Details: 90% growth inhibitory concentration, Acinetobacter baumannii ATCC17961, Iso-Sensitest broth, OD 600 nm over 16 h; formate; read-out: ATCC 17961 IC90.
Type: cell-based
In short: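 A. baumannii ATCC17961 at ~5×10^5 CFU/ml in Iso-Sensitest broth exposed to 10-point twofold dilutions (e.g. 50–0.097 μM final), 35±2° C. OD600 read every 20 minutes over 16h; IC50 and IC90 derived from inhibition during logarithmic growth.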

| Structure (SMILES) | IC90 |
| --- | --- |
| COCCn1cc(-c2ccc(-c3cnc(C(=O)Nc4ccc(C(=O)N5CCN(C(=O)C6CC[N+](C)(CC(N)=O)CC6)CC5)c(Cl)c4)n3C)c(F)c2F)c(C)n1 (centres unmarked) [Example B3, N-[4-[4-[1-(2-amino-2-oxo-ethyl)-1-methyl-piperidin-1-ium-4-carbonyl]piperazine-1-carbonyl]-3-chloro-phenyl]-5-[2,3-difluoro-4-[1-(2-methoxyethyl)-3-methyl-pyrazol-4-yl]phenyl]-1-methyl-imidazole-2-carboxamide; formate] | 130 nM |

Same assay, conditions: Acinetobacter baumannii, ATCC17961, 16 h, 90% growth inhibitory concentration, Acinetobacter baumannii ATCC17961, Iso-Sensitest broth, OD 600 nm over 16 h; read-out: ATCC 17961 IC90

| Structure (SMILES) | IC90 |
| --- | --- |
| Cc1nn(CC(=O)Nc2cccnc2)cc1-c1ccc(-c2cnc(C(=O)Nc3ccc(C(=O)N4CCN(C(=O)C5CC[N+](C)(C)CC5)CC4)c(Cl)c3)n2C)c(F)c1F [Example G27, N-[3-chloro-4-[4-(1,1-dimethylpiperidin-1-ium-4-carbonyl)piperazine-1-carbonyl]phenyl]-5-[2,3-difluoro-4-[3-pyridylamino)ethyl] pyrazol-4-yl]phenyl]-1-methyl-imidazole-2-carboxamide; formate] | 120 nM |
| COCCn1ncc(-c2ccc(-c3cnc(C(=O)Nc4ccc(C(=O)N5CCN(C(=O)C6CC[N+](C)(C)CC6)CC5)c(Cl)c4)n3C)c(OC)c2F)c1C [Example F23, N-[3-chloro-4-[4-(1,1-dimethylpiperidin-1-ium-4-carbonyl)piperazine-1-carbonyl]phenyl]-5-[3-fluoro-2-methoxy-4-[1-(2-methoxyethyl)-5-methyl-pyrazol-4-yl]phenyl]-1-methyl-imidazole-2-carboxamide; formate] | 750 nM |
| COCCn1ncc(-c2ccc(-c3cnc(C(=O)Nc4ccc(C(=O)N5CCN(C(=O)C6CCNCC6)CC5)c(Cl)c4)n3C)c(F)c2F)c1COC [Example E13, N-[3-chloro-4-[4-(piperidine-4-carbonyl)piperazine-1-carbonyl]phenyl]-5-[2,3-difluoro-4-[1-(2-methoxyethyl)-5-(methoxymethyl)pyrazol-4-yl]phenyl]-1-methyl-imidazole-2-carboxamide; formic acid] | 380 nM |
| Cc1ccc(NC(=O)NCCn2cc(-c3ccc(-c4cnc(C(=O)Nc5ccc(C(=O)N6CCN(C(=O)C7CC[N+](C)(C)CC7)CC6)c(Cl)c5)n4C)c(F)c3F)c(C)n2)cn1 [Example M1, N-[3-chloro-4-[4-(1,1-dimethylpiperidin-1-ium-4-carbonyl)piperazine-1-carbonyl]phenyl]-5-[2,3-difluoro-4-[3-methyl-1-[2-[(6-methyl-3-pyridyl)carbamoylamino]ethyl]pyrazol-4-yl]phenyl]-1-methyl-imidazole-2-carboxamide formate] | 152 nM |

Other lines, results leading:

| IC90 | Structure (SMILES) |
| --- | --- |
| 170 nM | Cc1c(-c2ccc(-c3cnc(C(=O)Nc4ccc(C(=O)N5CCN(C(=O)C6CC[N+](C)(C)CC6)CC5)c(Cl)c4)n3C)c(F)c2F)cnn1CCNC(=O)Nc1ccccn1 [Example H6, N-[3-chloro-4-[4-(1,1-dimethylpiperidin-1-ium-4-carbonyl)piperazine-1-carbonyl]phenyl]-5-[2,3-difluoro-4-[5-methyl-1-[2-(2-pyridylcarbamoylamino)ethyl]pyrazol-4-yl]phenyl]-1-methyl-imidazole-2-carboxamide; formate] |
| 290 nM | Cc1nn(CC(=O)NC(C)C)cc1-c1ccc(-c2cnc(C(=O)Nc3ccc(C(=O)N4CCN(C(=O)C5CC[N+](C)(C)CC5)CC4)c(Cl)c3)n2C)c(F)c1F [Example G1, N-[3-chloro-4-[4-(1,1-dimethylpiperidin-1-ium-4-carbonyl)piperazine-1-carbonyl]phenyl]-5-[2,3-difluoro-4-[1-[2-(isopropylamino)-2-oxo-ethyl]-3-methyl-pyrazol-4-yl]phenyl]-1-methyl-imidazole-2-carboxamide; formate] |
| 230 nM | Cn1c(-c2ccc(-c3cn(CCCC(N)=O)nc3C(F)(F)F)c(F)c2F)cnc1C(=O)Nc1ccc(C(=O)N2CCN(C(=O)C3CC[N+](C)(C)CC3)CC2)c(Cl)c1 [Example F34, 5-[4-[1-(4-amino-4-oxo-butyl)-3-(trifluoro-methyl)pyrazol-4-yl]-2,3-difluoro-phenyl]-N-[3-chloro-4-[4-(1,1-dimethylpiperidin-1-ium-4-carbonyl)piperazine-1-carbonyl]phenyl]-1-methyl-imidazole-2-carboxamide; formate] |
| 82 nM | COCCn1ncc(-c2ccc(-c3cnc(C(=O)Nc4ccc(C(=O)N5CCN(C(=O)C[N+]6(C)CCCC6)CC5)c(Cl)c4)n3C)c(F)c2F)c1C [Example C14, N-[3-chloro-4-[4-[2-(1-methylpyrrolidin-1-ium-1-yl)acetyl]piperazine-1-carbonyl]phenyl]-5-[2,3-difluoro-4-[1-(2-methoxyethyl)-5-methyl-pyrazol-4-yl]phenyl]-1-methyl-imidazole-2-carboxamide; 2,2,2-trifluoroacetate] |
| 580 nM | Cn1c(-c2ccc(-c3cn(CCS(C)(=O)=O)nc3C(F)(F)F)c(F)c2F)cnc1C(=O)Nc1ccc(C(=O)N2CCN(C(=O)C3CC[N+](C)(C)CC3)CC2)c(Cl)c1 [Example F32, N-[3-chloro-4-[4-(1,1-dimethylpiperidin-1-ium-4-carbonyl)piperazine-1-carbonyl]phenyl]-5-[2,3-difluoro-4-[1-(2-methylsulfonylethyl)-3-(trifluoro-methyl)pyrazol-4-yl]phenyl]-1-methyl-imidazole-2-carboxamide; formate] |
| 330 nM | Cc1nn(Cc2c[nH]nn2)cc1-c1ccc(-c2cnc(C(=O)Nc3ccc(C(=O)N4CCN(C(=O)C5CC[N+](C)(C)CC5)CC4)c(Cl)c3)n2C)c(F)c1F [Example F56, N-[3-chloro-4-[4-(1,1-dimethylpiperidin-1-ium-4-carbonyl)piperazine-1-carbonyl]phenyl]-5-[2,3-difluoro-4-[3-methyl-1-(1H-triazol-4-ylmethyl)pyrazol-4-yl]phenyl]-1-methyl-imidazole-2-carboxamide; formate] |
| 330 nM | COCCn1ncc(-c2ccc(-c3cnc(C(=O)Nc4ccc(C(=O)N5CCC(C(=O)N6CC[N+](CC(=O)O)(CC7CNC7)CC6)CC5)c(Cl)c4)n3C)c(F)c2F)c1C [Example B22, 2-[1-(azetidin-3-ylmethyl)-4-[1-[2-chloro-4-[[5-[2,3-difluoro-4-[1-(2-methoxyethyl)-5-methyl-pyrazol-4-yl]phenyl]-1-methyl-imidazole-2-carbonyl]amino]benzoyl]piperidine-4-carbonyl]piperazin-1-ium-1-yl]acetic acid; formate] |

Same assay, conditions: Acinetobacter baumannii, ATCC17961, 16 h, read-out: ATCC 17961 IC90

| Structure (SMILES) | IC90 |
| --- | --- |
| COCCn1nc(C)c(-c2ccc(-c3cnc(C(=O)Nc4ccc(C(=O)N5CCN(C(=O)C6CC[N+](C)(CCO)CC6)CC5)c(Cl)c4)n3C)cc2)c1C (centres unmarked) [Example B11, N-[3-chloro-4-[4-[1-(2-hydroxyethyl)-1-methyl-piperidin-1-ium-4-carbonyl]piperazine-1-carbonyl]phenyl]-5-[4-[1-(2-methoxyethyl)-3,5-dimethyl-pyrazol-4-yl]phenyl]-1-methyl-imidazole-2-carboxamide; formate] | 170 nM |
| COCCn1ncc(-c2ccc(-c3cnc(C(=O)Nc4ccc(C(=O)N[C@H]5[C@@H]6CN(C(=O)C7CC[N+](CC(=O)O)(CC8CNC8)CC7)C[C@@H]65)c(Cl)c4)n3C)c(F)c2F)c1C (stereo partly drawn) [Example O2, 2-[1-(azetidin-3-ylmethyl)-4-[(1S,5R) 6-[[2-chloro-4-[[5-[2,3-difluoro-4-[1-(2-methoxyethyl)-5-methyl-pyrazol-4-yl]phenyl]-1-methyl-imidazole-2-carbonyl]amino]benzoyl]amino]-3-azabicyclo[3.1.0]hexane-3-carbonyl]piperidin-1-ium-1-yl]acetic acid formate] | 362 nM |
